Patent EP4678644A1, “SUBSTITUTED DIHYDROTHIENOPYRIMIDINE COMPOUND, PREPARATION METHOD THEREFOR, AND USE THEREOF” (Shanghai Yidi Biotechnology Co., Ltd., priority 2023, dated 2024)

Legend:
PDE4B2 [1] = biological target: T1, PDE4B2 (Homo sapiens, UniProt Q07343); assay: PDE4B2 enzyme experiment (AMP-glo, cAMP substrate); assay type: biochemical; settings: for inhibition at 0.01 µM: read-out: PDE4B2 Enzyme Inhibition% @10 nM; for inhibition at 0.1 µM: read-out: PDE4B2 Enzyme Inhibition% @100 nM
T1 construct: expressed in transfected cells; host or cells: Flp-In-293 (Flpin-293-PDE4B2 [sic])

PDE4B2 [2] = biological target: T1, PDE4B2; assay: PDE4B2 cell experiment (cAMP, Eu-cAMP tracer / Ulight-anti-cAMP); assay type: cell-based; settings: Flpin-293-PDE4B2 cells; for inhibition at 0.01 µM / Cell Inhibition% @10 nM: 10 nM; for inhibition at 0.1 µM / Cell Inhibition% @100 nM: 100 nM; for IC50: Foskolin; for Cell Inhibition% @1 nM / inhibition at 0.001 µM: 1 nM

T1 sequence (Q07343 1-564 isoform Q07343-2): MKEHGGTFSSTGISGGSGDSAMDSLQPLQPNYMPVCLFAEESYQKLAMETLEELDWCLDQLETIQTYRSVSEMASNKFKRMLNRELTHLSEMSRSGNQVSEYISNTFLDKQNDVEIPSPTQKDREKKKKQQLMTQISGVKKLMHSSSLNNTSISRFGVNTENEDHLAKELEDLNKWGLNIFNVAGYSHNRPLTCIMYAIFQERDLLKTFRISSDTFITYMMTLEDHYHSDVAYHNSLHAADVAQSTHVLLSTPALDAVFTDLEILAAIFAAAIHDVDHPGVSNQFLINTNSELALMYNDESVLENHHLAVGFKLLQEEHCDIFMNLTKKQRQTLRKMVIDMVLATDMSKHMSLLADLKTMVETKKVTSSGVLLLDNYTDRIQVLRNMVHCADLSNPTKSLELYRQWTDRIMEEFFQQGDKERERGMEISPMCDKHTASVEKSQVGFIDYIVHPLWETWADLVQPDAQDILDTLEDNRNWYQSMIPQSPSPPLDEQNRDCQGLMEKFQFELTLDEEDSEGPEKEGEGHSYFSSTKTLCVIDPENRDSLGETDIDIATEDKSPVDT

IC50 (PDE4B2 [1]) | IC50 (PDE4B2 [2]) | Cell Inhibition% @10 nM (PDE4B2 [2]) | Cell Inhibition% @100 nM (PDE4B2 [2]) | Structure (SMILES) | other results
– | – | 9% | 33.2% | [O-][S+]1CCc2nc(N3Cc4ccc(Cl)cc4C3)nc(NC3(CO)CCC3)c21 (centres unmarked) [Compound 33] | PDE4B2 Enzyme Inhibition% @10 nM (PDE4B2 [1]): 72.33%; PDE4B2 Enzyme Inhibition% @100 nM (PDE4B2 [1]): 98.64%
1.96 nM | – | 14% | 62% | [O-][S+]1CCc2nc(N3CCc4ccc(Cl)cc4CC3)nc(NC3(CO)CCC3)c21 (centres unmarked) [Compound 34] | –
– | – | 18.10% | 66.60% | [O-][S+]1CCc2nc(N3CCc4ccsc4C3)nc(NC3(CO)CCC3)c21 (centres unmarked) [Compound 36] | PDE4B2 Enzyme Inhibition% @10 nM (PDE4B2 [1]): 74.54%; PDE4B2 Enzyme Inhibition% @100 nM (PDE4B2 [1]): 99.04%
2.99 nM | 89.5 nM | – | – | [O-][S+]1CCc2nc(N3CCc4sccc4C3)nc(NC3(CO)CCC3)c21 (centres unmarked) [Compound 37] | –
– | 3.99 nM | – | – | Cn1c(=O)c2c(c3ccc(Cl)cc31)CCN(c1nc3c(c(NC4(CO)CCC4)n1)[S@+]([O-])CC3)C2 [Compound 45, (R)-8-chloro-3-(4-((1-(hydroxymethyl)cyclobutyl)amino)-5-oxido-6,7-dihydrothieno[3,2-d]pyrimidin-2-yl)-6-methyl-2,3,4,6-tetrahydrobenzo[c][2,7]naphthyridin-5(1H)-one] | inhibition at 0.01 µM (PDE4B2 [1]): 99.8%; inhibition at 0.1 µM (PDE4B2 [1]): 100%
– | – | 69.61% | 99.05% | [O-][S+]1CCc2nc(N3CCc4ccc(Br)cc4CC3)nc(NC3(CO)CCC3)c21 (centres unmarked) [Compound 46] | PDE4B2 Enzyme Inhibition% @10 nM (PDE4B2 [1]): 98.91%; PDE4B2 Enzyme Inhibition% @100 nM (PDE4B2 [1]): 100.22%
– | 6.28 nM | – | – | COc1ccc2c(c1)CCN(c1nc3c(c(NC4(CO)CCC4)n1)[S+]([O-])CC3)CC2 (centres unmarked) [Compound 47] | PDE4B2 Enzyme Inhibition% @10 nM (PDE4B2 [1]): 98.41%; PDE4B2 Enzyme Inhibition% @100 nM (PDE4B2 [1]): 100.06%
– | – | 39.69% | 97.73% | [O-][S+]1CCc2nc(N3CC[C@@H]4c5ccc(Br)cc5OC[C@H]4C3)nc(NC3(CO)CCC3)c21 (some centres unmarked) [Compound 115] | Cell Inhibition% @1 nM (PDE4B2 [2]): 7.72%
– | – | 17.32% | 61.63% | [O-][S+]1CCc2nc(N3CC[C@H]4c5cnc(Cl)cc5OC[C@@H]4C3)nc(NC3(CO)CCC3)c21 (some centres unmarked) [Compound 117] | Cell Inhibition% @1 nM (PDE4B2 [2]): 5.32%

Continued, molecule first:

Structure (SMILES) | IC50 (PDE4B2 [1]) | IC50 (PDE4B2 [2]) | Cell Inhibition% @10 nM (PDE4B2 [2]) | Cell Inhibition% @100 nM (PDE4B2 [2]) | other results
[O-][S@@+]1CCc2nc(N3CCc4nn5cc(Cl)cnc5c4C3)nc(NC3(CO)CCC3)c21 [Compound 3] | 926 nM | – | – | – | –
[O-][S@+]1CCc2nc(N3Cc4nc5cc(Cl)ccn5c4C3)nc(NC3(CO)CCC3)c21 [Compound 8, (R)-2-(6-chloro-1,3-dihydro-2H-pyrrolo[3',4':4,5]imidazo[1,2-a]pyridin-2-yl)-4-((1-(hydroxymethyl)cyclobutyl)amino)-6,7-dihydrothieno[3,2-d]pyrimidine 5-oxide] | – | – | – | – | inhibition at 0.01 µM (PDE4B2 [2]): 3.5%; inhibition at 0.1 µM (PDE4B2 [2]): 15.1%; inhibition at 0.01 µM (PDE4B2 [1]): 45%; inhibition at 0.1 µM (PDE4B2 [1]): 94.1%
[O-][S+]1CCc2nc(N3CCc4c(nn5cccc(Cl)c45)C3)nc(NC3(CO)CCC3)c21 (centres unmarked) [Compound 10] | 2.31 nM | 73.8 nM | – | – | –
[O-][S@+]1CCc2nc(N3CC[C@@H]4c5ccc(Cl)cc5CC[C@@H]4C3)nc(NC3(CO)CCC3)c21 [Compound 12, (R)-2-((4aS,10bS)-8-chloro-1,4,4a,5,6,10-hexahydrobenzo[f]isoquinolin-3(2H)-yl)-4-((1-(hydroxymethyl)cyclobutyl)amino)-6,7-dihydrothieno[3,2-d]pyrimidine 5-oxide] | 15.4 nM | – | – | – | inhibition at 0.01 µM (PDE4B2 [2]): 16%; inhibition at 0.1 µM (PDE4B2 [2]): 7.46%
[O-][S@+]1CCc2nc(N3CC[C@H]4c5ccc(Cl)cc5OC[C@@H]4C3)nc(NC3(CO)CCC3)c21 [Compound 13, (R)-2-((4aS,10bR)-8-chloro-1,4a,5,10b-tetrahydro-2H-chromeno[3,4-c]pyridin-3(4H)-yl)-4-((1-(hydroxymethyl)cyclobutyl)amino)-6,7-dihydrothieno[3,2-d]pyrimidine 5-oxide] | 6.39 nM | 562 nM | – | – | –
[O-][S+]1CCc2nc(N3CCc4scnc4C3)nc(NC3(CO)CCC3)c21 (centres unmarked) [Compound 17] | 471 nM | – | – | – | –
[O-][S+]1CCc2nc(N3CCc4c(Cl)cccc4C3)nc(NC3(CO)CCC3)c21 (centres unmarked) [Compound 19] | 7.17 nM | 205 nM | – | – | –
[O-][S+]1CCc2nc(N3CCc4ccc(Cl)cc4C3)nc(NC3(CO)CCC3)c21 (centres unmarked) [Compound 20] | 1.85 nM | – | 14.18% | 69.92% | –
[O-][S+]1CCc2nc(N3CCc4cccc(Cl)c4C3)nc(NC3(CO)CCC3)c21 (centres unmarked) [Compound 21] | 2.11 nM | – | 18.76% | 79.24% | –
[O-][S+]1CCc2nc(N3CCc4cc(F)ccc4C3)nc(NC3(CO)CCC3)c21 (centres unmarked) [Compound 23] | 2.84 nM | 29.1 nM | – | – | –
C[C@H]1c2ccc(Cl)cc2CCN1c1nc2c(c(NC3(CO)CCC3)n1)[S@+]([O-])CC2 [Compound 28, (R)-2-((S)-6-chloro-1-methyl-3,4-dihydroisoquinolin-2(1H)-yl)-4-((1-(hydroxymethyl)cyclobutyl)amino)-6,7-dihydrothieno[3,2-d]pyrimidine 5-oxide] | 0.68 nM | 36.3 nM | – | – | –
Cn1cc2c(n1)CCN(c1nc3c(c(NC4(CO)CCC4)n1)[S+]([O-])CC3)C2 (centres unmarked) [Compound 31] | 7.42 nM | – | – | – | –
Cn1cnc2c1CN(c1nc3c(c(NC4(CO)CCC4)n1)[S@+]([O-])CC3)CC2 [Compound 38, (R)-4-((1-(hydroxymethyl)cyclobutyl)amino)-2-(3-methyl-3,4,6,7-tetrahydro-5H-imidazo[4,5-c]pyridin-5-yl)-6,7-dihydrothieno[3,2-d]pyrimidine-5-oxide] | – | – | – | – | inhibition at 0.01 µM (PDE4B2 [2]): 20.3%; inhibition at 0.1 µM (PDE4B2 [2]): 38.2%; inhibition at 0.01 µM (PDE4B2 [1]): 35.4%; inhibition at 0.1 µM (PDE4B2 [1]): 84.7%
[O-][S@+]1CCc2nc(N3CCc4c(Br)csc4C3)nc(NC3(CO)CCC3)c21 [Compound 54, (R)-2-(3-bromo-4,7-dihydrothieno[2,3-c]pyridin-6(5H)-yl)-4-((1-(hydroxymethyl)cyclobutyl)amino)-6,7-dihydrothieno[3,2-d]pyrimidine 5-oxide] | – | – | – | – | inhibition at 0.001 µM (PDE4B2 [1]; read-out: PDE4B2 Enzyme Inhibition% @1 nM): 9.28%; inhibition at 0.01 µM (PDE4B2 [1]): 58.9%; inhibition at 0.1 µM (PDE4B2 [1]): 96.6%
[O-][S@+]1CCc2nc(N3CCc4c(ccc5[nH]ncc45)C3)nc(NC3(CO)CCC3)c21 [Compound 118, (R)-4-((1-(hydroxymethyl)cyclobutyl)amino)-2-(3,6,8,9-tetrahydro-7H-pyrazolo[4,3-f]isoquinolin-7-yl)-6,7-dihydrothieno[3,2-d]pyrimidine 5-oxide] | – | – | – | – | inhibition at 0.001 µM (PDE4B2 [2]): 11.1%; inhibition at 0.01 µM (PDE4B2 [2]): 41.7%; inhibition at 0.1 µM (PDE4B2 [2]): 89%
[O-][S@+]1CCc2nc(N3CCc4cc(N5CCCC5)cnc4C3)nc(NC3(CO)CCC3)c21 [Compound 184, (R)-4-((1-(hydroxymethyl)cyclobutyl)amino)-2-(3-(pyrrolidin-1-yl)-5,8-dihydro-1,7-naphthyridin-7(6H)-yl)-6,7-dihydrothieno[3,2-d]pyrimidine 5-oxide] | – | – | – | – | inhibition at 0.001 µM (PDE4B2 [2]): 36.5%; inhibition at 0.01 µM (PDE4B2 [2]): 94.3%; inhibition at 0.1 µM (PDE4B2 [2]): 100%
